Experiments:
[1] = molecular target: T1, human Nav1.7 (hNav1.7) voltage-gated sodium channel alpha subunit (Homo sapiens, UniProt Q15858); assay: Qube automated patch-clamp electrophysiology, HEK293-hNav1.[…], inactivated state (-70 mV); also thallium flux assay IC50 […]; type: cell-based
T1 construct: gene SCN9A; alpha subunit, stably expressed in HEK293 cells

[2] = molecular target: T1, human Nav1.7 (hNav1.7) voltage-gated sodium channel alpha subunit; assay: Qube automated patch-clamp electrophysiology, HEK293-hNav1.[…], inactivated state (-70 mV); type: cell-based

T1 sequence (Q15858 whole entry): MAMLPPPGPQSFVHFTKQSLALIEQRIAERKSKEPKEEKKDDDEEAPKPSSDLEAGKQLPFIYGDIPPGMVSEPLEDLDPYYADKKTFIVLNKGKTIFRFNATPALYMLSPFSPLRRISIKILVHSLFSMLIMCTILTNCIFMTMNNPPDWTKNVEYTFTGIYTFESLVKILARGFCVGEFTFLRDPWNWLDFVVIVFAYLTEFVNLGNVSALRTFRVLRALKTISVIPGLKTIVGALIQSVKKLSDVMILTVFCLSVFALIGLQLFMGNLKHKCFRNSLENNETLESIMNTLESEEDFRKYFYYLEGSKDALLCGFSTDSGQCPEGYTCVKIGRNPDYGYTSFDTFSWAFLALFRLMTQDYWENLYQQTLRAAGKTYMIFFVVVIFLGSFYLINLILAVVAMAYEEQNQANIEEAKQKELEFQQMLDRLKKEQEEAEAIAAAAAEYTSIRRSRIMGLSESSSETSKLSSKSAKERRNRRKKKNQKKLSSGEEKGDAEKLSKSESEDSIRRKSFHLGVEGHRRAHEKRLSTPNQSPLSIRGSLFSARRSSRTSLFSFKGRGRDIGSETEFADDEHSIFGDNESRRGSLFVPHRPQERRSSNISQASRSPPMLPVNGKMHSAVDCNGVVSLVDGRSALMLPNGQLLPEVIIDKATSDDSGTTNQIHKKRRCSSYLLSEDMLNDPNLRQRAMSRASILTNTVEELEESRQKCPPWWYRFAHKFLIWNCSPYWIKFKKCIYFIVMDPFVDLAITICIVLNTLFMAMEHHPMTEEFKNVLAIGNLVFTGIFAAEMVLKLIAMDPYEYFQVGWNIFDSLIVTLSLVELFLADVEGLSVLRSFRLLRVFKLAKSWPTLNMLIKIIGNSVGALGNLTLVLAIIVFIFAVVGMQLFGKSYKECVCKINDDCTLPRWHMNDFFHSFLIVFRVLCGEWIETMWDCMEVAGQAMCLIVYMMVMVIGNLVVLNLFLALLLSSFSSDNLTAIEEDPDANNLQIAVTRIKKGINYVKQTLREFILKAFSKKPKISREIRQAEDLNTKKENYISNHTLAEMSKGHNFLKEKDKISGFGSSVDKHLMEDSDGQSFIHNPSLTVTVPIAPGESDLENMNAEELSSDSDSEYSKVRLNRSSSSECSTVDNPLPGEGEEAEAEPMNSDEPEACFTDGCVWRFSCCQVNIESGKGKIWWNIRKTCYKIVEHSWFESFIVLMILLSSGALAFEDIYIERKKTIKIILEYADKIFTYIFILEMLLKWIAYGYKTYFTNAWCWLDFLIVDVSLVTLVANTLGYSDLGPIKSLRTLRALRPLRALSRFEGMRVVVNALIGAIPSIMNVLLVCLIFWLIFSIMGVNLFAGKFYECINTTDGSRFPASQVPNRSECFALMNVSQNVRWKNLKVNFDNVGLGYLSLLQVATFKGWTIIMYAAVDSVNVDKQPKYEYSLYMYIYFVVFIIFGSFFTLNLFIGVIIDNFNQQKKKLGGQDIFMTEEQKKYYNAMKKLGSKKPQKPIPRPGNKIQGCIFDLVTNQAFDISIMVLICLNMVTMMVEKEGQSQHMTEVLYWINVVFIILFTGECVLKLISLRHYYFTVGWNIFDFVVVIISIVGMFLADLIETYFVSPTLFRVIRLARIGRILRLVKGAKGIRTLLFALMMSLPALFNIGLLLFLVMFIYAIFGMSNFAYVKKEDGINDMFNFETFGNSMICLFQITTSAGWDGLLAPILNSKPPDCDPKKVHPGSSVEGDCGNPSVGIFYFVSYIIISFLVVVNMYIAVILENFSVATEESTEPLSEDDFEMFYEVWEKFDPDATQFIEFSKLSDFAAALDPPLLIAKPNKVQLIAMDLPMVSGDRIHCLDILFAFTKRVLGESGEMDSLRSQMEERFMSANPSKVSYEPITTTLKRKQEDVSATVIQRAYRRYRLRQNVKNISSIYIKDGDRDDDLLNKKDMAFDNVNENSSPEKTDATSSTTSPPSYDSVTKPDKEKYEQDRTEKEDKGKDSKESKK

Kd [1]	Kd [2]	SMILES
49.9 µM		CCCCCCCC/C=C\CCCCCCCC(=O)OC(COC(=O)CCCCCCCCCCCCCCC)CO[C@@H]1O[C@H](CO)[C@H](O)[C@H](O)[C@H]1O (stereo partly drawn) [compound 1, 1-palmitoyl-2-oleoyl-3-(β-D-galactosyl)-glycerol]
	25.2 µM	CCCCCCCCCCCCCCCC(=O)OC[C@H](CO[C@H]1O[C@H](CS(=O)(=O)O)[C@@H](O)[C@H](O)[C@H]1O)OC(=O)CCCCCCCCCCCCCCC [compound 2, sulfoquinovosyldiacylglycerin]
